In patent EP4570800A1, “CRYSTAL FORM OF PYRIDINOPYRIMIDINONE COMPOUND, ACID SALT THEREOF, CRYSTAL FORM OF ACID SALT THEREOF, AND USE” (Wuhan Humanwell Innovative Drug Research and Development …, priority 2022, dated 2024):
Read-outs that look alike come from different tables or passages of the source.

How the values were obtained:
[1] = system: H358 cells; assay: Inhibition of 3D cell proliferation (3D CellTiter-Glo); type: cell-based
Procedure: H358 cells were seeded in a T75 culture flask, and cultured in a RPMI 1640 medium containing 10% FBS for 2 days for subsequent experiments in which the cells would be cultured or seeded on a 384-well plate.
On day 1, the cells were seeded on the 384-well plate, with 40 µL of medium added per well and serially diluted compounds or DMSO added per well, and an additional well without seeded cells but with medium was set up as a blank control. After culture at 37°C, 5% CO2 for 7 days, the plate was added with 3D CellTiter-Glo reagent (Promega, Cat. No. G9683) on day 8, shaken at 320 rpm for 20 min, and left at room temperature for 2 h. Luminescence signals were read on a multifunctional microplate reader. Cell viability inhibition rate was calculated as: [formula]
IC50 values were calculated using Graphpad 5 software.

[2] = Human liver microsome stability test; type: in vitro ADME; settings: human liver microsomes
Procedure: The human liver microsome stability test was performed by incubating the compound and human liver microsomes in vitro. First, the compound to be tested was prepared into a 10 mM stock solution in DMSO solvent, and then the compound was diluted to 0.5 mM with acetonitrile. Human liver microsomes (Corning) were diluted with PBS into a microsome/buffer solution, and the solution was used to dilute 0.5 mM compound into a working solution, in which the concentration of the compound was 1.5 µM, and the concentration of human liver microsomes was 0.75 mg/mL. A deep-well plate was taken, 30 µL of the working solution was added per well, and then 15 µL of pre-heated 6 mM NADPH solution was added thereto to initiate a reaction, and the reaction was incubated at 37°C. At 0, 5, 15, 30, and 45 min of the incubation, 135 µL of acetonitrile was added to the corresponding wells to terminate the reaction. After the reaction was terminated with acetonitrile at the last time point of 45 min, the deep-well plate was vortexed for 10 min (600 rpm/min), and then centrifuged for 15 min. After centrifugation, the supernatant was collected, and added with purified water in a ratio of 1:1 to perform LC-MS/MS detection. A ratio of a peak area of compound to a peak area of internal standard at each time point was obtained, and the peak area ratios of the compound at 5, 15, 30, and 45 min were compared with the peak area ratio at 0 min to calculate the remaining percentage of the compound at each time point. T1/2 was calculated by using GraphPad 5 software.

[3] = molecular target: T1, CYP3A4 (Homo sapiens, UniProt P08684); assay: Cytochrome P450 inhibition test (CYP3A4, substrates midazolam and testosterone); type: in vitro ADME; settings: compound 10 µM, human liver microsomes
T1 construct: A human liver microsome solution at a concentration of 0.2 mg/mL was prepared; from tissue; host or cells: human liver microsomes
T1 sequence (P08684 whole entry): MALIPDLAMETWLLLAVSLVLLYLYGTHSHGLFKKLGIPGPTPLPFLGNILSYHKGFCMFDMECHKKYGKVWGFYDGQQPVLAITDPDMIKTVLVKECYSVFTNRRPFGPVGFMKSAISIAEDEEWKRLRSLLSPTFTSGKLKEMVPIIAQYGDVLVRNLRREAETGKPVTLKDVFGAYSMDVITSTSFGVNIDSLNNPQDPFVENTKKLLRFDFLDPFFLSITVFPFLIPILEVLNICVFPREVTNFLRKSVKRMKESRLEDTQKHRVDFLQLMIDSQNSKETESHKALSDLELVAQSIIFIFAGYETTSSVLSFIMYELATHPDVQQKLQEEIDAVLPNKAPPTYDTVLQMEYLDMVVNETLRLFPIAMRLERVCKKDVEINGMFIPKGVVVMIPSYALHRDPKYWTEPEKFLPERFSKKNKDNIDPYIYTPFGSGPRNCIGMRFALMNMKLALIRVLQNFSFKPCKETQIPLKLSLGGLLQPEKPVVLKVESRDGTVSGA
Procedure: The inhibitory potential of compounds on cytochrome P450 (CYP450) subtype CYP3A4 (two substrates of midazolam and testosterone) was detected. First, the compound to be tested was prepared into a 10 mM stock solution in DMSO solvent, and the CYP3A4 inhibitor ketoconazole was prepared as 10 mM, 2.5 mM, and 2.5 mM stock solutions in DMSO solvent. The test compound and ketoconazole were diluted to 400-fold final concentration (compound: 10 µM, ketoconazole: 2.5 µM) with acetonitrile.
NADPH cofactor (10 mL of potassium phosphate buffer added with 66.7 mg NADPH) at 4-fold final concentration and substrates were prepared with potassium phosphate buffer (0.1 M, pH = 7.4), with CYP3A4 substrate midazolam at a final concentration of 320 µM and CYP3A4 substrate testosterone at a final concentration of 20 µM.
A human liver microsome solution at a concentration of 0.2 mg/mL was prepared with potassium phosphate buffer on ice. A solution of the compound to be tested and a control inhibitor (control compound) solution at 2-fold final concentration were prepared with the human liver microsome solution on ice. The test wells were added with 30 mL of the test compound solution and the control inhibitor solution respectively, and then added with 15 mL of the substrate for duplication. […]

[4] = Plasma protein binding rate by equilibrium dialysis; type: in vitro ADME; settings: compound 1 µM, equilibrium dialysis 37°C
Procedure: Plasma protein binding rate of compounds was detected by equilibrium dialysis (HTDialysis, HTD 96b). The compound was prepared into a […] stock solution with DMSO, and then 25-fold diluted with 0.05 M sodium phosphate buffer as a working solution. A blank 96-well plate was taken and preloaded with 380 µL of plasma per well. The plasma was then added with the working solution at 20 µL/well and mixed well, with the compound at a final concentration of 1 µM, containing 0.2% DMSO per well.
100 µL of 0.05 M sodium phosphate buffer was added to the receiver-side of each dialysis chamber (HTD 96b), and then 100 µL of plasma containing the compound was added to the supply-side. The dialysis chamber was covered with a plastic lid, shaken, and incubated at 37°C for 5 h.
After incubation, 25 µL of sample was taken from each of the supply-side and the receiver-side of the dialysis chamber, and placed in the blank 96-well plate. An equal volume of plasma was added to each of the supply-side samples while an equal volume of 0.05 M sodium phosphate buffer was added to each of the receiver-side samples, and mixed well. […]
Plasma protein binding rate and free fraction were calculated using the following formulas: % binding rate = 100 × ([supply-side concentration]5h - [receiver-side concentration]5h)/[supply-side concentration]5h. % free fraction = 100 - % binding rate

[5] = system: Mia Paca-2 pancreatic cancer; assay: In vivo efficacy test on Mia Paca-2 pancreatic cancer; set-up: species or system mice; settings: for Average tumor weight at the end of the treatment / Tumor weight inhibition rate (relative to the vehicle group): BID
Procedure: (§1) After one week of adaptive feeding of mice, Mia Paca-2 cells in a logarithmic phase were resuspended in serum-free DMEM, and then mixed with Matrigel in a ratio of 1: 1. 1 × 10^7 Mia Paca-2 cells were inoculated subcutaneously at the right flank at 100 µL per mouse, and tumor growth was observed regularly. When the tumor grew to an average volume of 150 to 200 mm^3, the mice were randomly divided into a model group and an administration group (single drug, in combination with trametinib) based on the tumor size and body weight. The tumor size and body weight were measured and recorded before and during the administration. After the treatment, the tumor size in the model group was compared with that in the administration group to determine the efficacy.

[6] = system: LOVO colorectal cancer; assay: In vivo efficacy test on LOVO colorectal cancer; set-up: species or system mice; settings: 50 mg/kg, BID
Procedure: as §1, with “LOVO” for “Mia Paca-2”, “F12K, 5” for “DMEM, and then mixed with Matrigel in a ratio of 1: 1. 1”, “10^6 LOVO” for “10^7 Mia Paca-2”, “group” for “group (single drug, in combination with trametinib)”

## Cc1nc(N[C@H](C)c2cccc(S(F)(F)(F)(F)F)c2)c2cn(C3(CF)CC3)c(=O)cc2n1 [Compound of formula I, (R)-6-(1-(fluoromethyl)cyclopropyl)-2-methyl-4-((1-(3-(pentafluorosulfanyl)phenyl)ethyl)amino)pyrido[4,3-d]pyrimidin-7(6H)-one]
[1]; Homo sapiens, NCI-H358, 168 h, 3D cell proliferation in H358 cells, 7 days culture, 3D CellTiter-Glo
  IC50: 11.5 nM
[1]; summary statement
  inhibitory effect on the 3D proliferation of H358 cells: strong inhibitory effect
[2]
  half-life at 1 µM: 765 min
[2]; incubation for 30 min, 37°C
  Remaining percentage (%) of compound after incubation for 30 min: 98.7%
[3]; pH 7.4, probe midazolam, substrate midazolam, read-out: CYP inhibition rate (%) CYP3A4 (midazolam)
  inhibition at 5 min, 10 µM: 0%
[3]; pH 7.4, probe testosterone, substrate testosterone, read-out: CYP inhibition rate (%) CYP3A4 (testosterone)
  inhibition at 5 min, 10 µM: 0%
[4]; human plasma, read-out: free fraction in plasma, Human (%)
  fraction unbound at 5 h, 1 µM: 0.017
[4]; mouse plasma, read-out: free fraction in plasma, Mouse (%)
  fraction unbound at 5 h, 1 µM: 0.011
[5]; Mia Paca-2, 25 mg/kg
  Average tumor weight at the end of the treatment: 0.35 g
  Tumor weight inhibition rate (relative to the vehicle group): 70%
[5]; Mia Paca-2, 50 mg/kg
  Average tumor weight at the end of the treatment: 0.27 g
  Tumor weight inhibition rate (relative to the vehicle group): 76%
[5]; alone (single drug)
  inhibitory effect on Mia Paca-2 tumor growth: significant inhibitory effect
[5]; combination with trametinib vs single use, Mia Paca-2
  efficacy of combined use compared with single use: more effective than the single use
[5]; in combination with trametinib
  inhibitory effect on Mia Paca-2 tumor growth: significant inhibitory effect
[6]
  At the end of treatment Average tumor weight: 0.75 g
  Tumor weight inhibition rate (relative to the vehicle group): 46%
